Assay results reported in paper PMC10584170, “Machine learning-based phenotypic imaging to characterise the targetable biology of Plasmodium falciparum male gametocytes for the development of transmission-blocking antimalarials” (PLOS Pathogens, 2023).
Like-named read-outs stand apart in the source and are kept apart here. Each block holds one compound with its values, some of them ahead of it.

Columns and labels:
[1] = tested on: P. falciparum male gametocytes; assay: P. falciparum Dual Gamete Formation Assay (PfDGFA), male readout (exflagellation); type: cell-based, Plasmodium falciparum NF54; details: for Selectivity Ratio M: HepG2 Tox50 versus male IC50; for IC50: PfDGFA, 24 h incubation with gametocytes before induction, exflagellation readout, read-out: Male IC50
Description: (§1) P. falciparum NF54 (originally isolated from an imported malaria case in the Netherlands in the 1980s; BEI Resources, cat. No. MRA-1000) strain asexual parasites were maintained between 0.3–5% parasitaemia by regular passage in complete culture medium (RPMI supplemented with 25 mM HEPES, 50 μg ml^−1 hypoxanthine, 4.8 g l^−1 NaHCO3, 2mM L-glutamine, 5% pooled type AB serum, 0.5% Albumax II (Gibco)) at 4% haematocrit in washed whole blood (National Blood and Transfusion Service or Centro de Transfusiones de la Comunidad de Madrid CTCM) under a 1% O2/3% CO2/96% N2 environment. Gametocytes were induced by seeding culture flasks at 2% parasitaemia/4% haematocrit and subjecting them to daily medium changes for 14 days whilst maintaining a temperature of 37°C at all times. On Day 14, the maturity of gametocytes was assessed by quantifying male gametogenesis (exflagellation). A 20 μl sample of gametocyte culture was mixed with equal volume of ookinete medium (complete culture medium supplemented with 0.1 μM xanthurenic acid) at room temperature and transferred to a haemocytometer. After 20 min at room temperature, exflagellation was accurately quantified as described in Delves et al. 2016 [17].
(§2) The Pf DGFA was performed as described in Delves et al. 2016 [17]. […] Plates were then incubated for 24 h at 37°C in a humidified box under a 1% O2/3% CO2/96% N2 gas mix. Gametogenesis was triggered by addition of 10 μl per well of ookinete medium + 0.27 μg ml^-1 Cy3-labelled anti-Pfs25 antibody. Plates were incubated on a metal block at 4°C for 4 min to ensure even cooling, then 28°C for a further 4 min. Exflagellation was recorded by capturing 10 frames over 1 s under brightfield illumination using a x4 objective with a 1.5x zoom (effectively x6) attached to an automated Nikon Ti fluorescence microscope. After recording exflagellation, plates were incubated for a further 24 h in the dark at 28°C to ensure maximal expression of Pfs25 by female gametes. The plates were then returned to the microscope and female gametes imaged at x6 using fluorescence microscopy.
(§3) Exflagellation centres and female gametes were quantified using custom image analysis pipelines developed within ICY Bioimage Analysis (https://icy.bioimageanalysis.org/).

[2] = tested on: P. falciparum female gametocytes; assay: P. falciparum Dual Gamete Formation Assay (PfDGFA), female readout (Pfs25-positive female gametes); type: cell-based, Plasmodium falciparum NF54; details: for Selectivity ratio F: HepG2 Tox50 versus female IC50; for IC50: PfDGFA, 24 h incubation with gametocytes before induction, female gamete readout, read-out: Female IC50
Description: as §1, §2, §3

[3] = PfDGFA at 2µM, 24h preincubation with gametocytes prior to induction of gametogenesis, replicate R1
[4] = PfDGFA at 2µM, 24h preincubation with gametocytes prior to induction of gametogenesis, replicate R3
[5] = PfDGFA at 2µM, 24h preincubation with gametocytes prior to induction of gametogenesis, replicate R4
[6] = PfDGFA at 2µM, 24h preincubation, average of replicates
[7] = number of replicates with >50% inhibition in the male readout, 2µM
[8] = number of replicates with >50% inhibition in the female readout, 2µM
[9] = PfDGFA at 2µM, 24h preincubation with gametocytes, average of replicates
[10] = PfDGFA at 2µM, 24h preincubation with gametocytes, replicate R1
[11] = PfDGFA at 2µM, 24h preincubation with gametocytes, replicate R3
[12] = PfDGFA at 2µM, 24h preincubation with gametocytes, replicate R4
[13] = 2µM, 24h preincubation with gametocytes, average of replicates
[14] = 2µM, 24h preincubation with gametocytes, replicate R1
[15] = 2µM, 24h preincubation with gametocytes, replicate R3
[16] = 2µM, 24h preincubation with gametocytes, replicate R4
[17] = 2µM, 24h preincubation with gametocytes prior to induction of gametogenesis, average of replicates
[18] = 2µM, 24h preincubation with gametocytes prior to induction of gametogenesis, replicate R1
[19] = 2µM, 24h preincubation with gametocytes prior to induction of gametogenesis, replicate R4

Compound: Br.CC(C)(C)c1ccc(Cn2c(=N)n(CC(=O)c3ccc(-c4ccccc4)cc3)c3ccccc32)cc1 [TCMDC-124030]
% inhibition male (individual replicates) R1 [1, 3]: -15.4%
% inhibition male (individual replicates) R3 [1, 4]: -16.6%
% inhibition male (individual replicates) R4 [1, 5]: -3.3%
Average inhibition male (%) [1, 6]: -8.2%
% inhibition female (individual replicates) R1 [2, 3]: -3.8%
% inhibition female (individual replicates) R3 [2, 4]: -20.2%
% inhibition female (individual replicates) R4 [2, 5]: -0.7%
Average inhibition female (%) [2, 6]: -8.6%

Compound: O=C(Nc1ccc([N+](=O)[O-])cc1)c1nn(-c2ccccc2)cc1/N=C/c1cccc(O)c1 [TCMDC-124108]
% inhibition male (individual replicates) R1 [1, 3]: -5.9%
% inhibition male (individual replicates) R3 [1, 4]: -27.6%
% inhibition male (individual replicates) R4 [1, 5]: -9.8%
Average inhibition male (%) [1, 6]: -10.2%
% inhibition female (individual replicates) R1 [2, 3]: 7.8%
% inhibition female (individual replicates) R3 [2, 4]: -29.5%
% inhibition female (individual replicates) R4 [2, 5]: -3.2%
Average inhibition female (%) [2, 6]: -2.4%

IC50 ([1]; Plasmodium falciparum): 6750 nM
IC50 ([2]; Plasmodium falciparum): > 10000 nM
Compound: c1ccc2[nH]c(CN(Cc3nc4ccccc4[nH]3)Cc3nc4ccccc4[nH]3)nc2c1 [TCMDC-124132]
Selectivity Ratio M [1]: 14.81
inhibition at 2 µM ([1]; Plasmodium falciparum, PfDGFA at 2µM, 24h preincubation with gametocytes, average of replicates, read-out: Average inhibition male (%)): 78.3%
inhibition at 2 µM ([1]; Plasmodium falciparum, PfDGFA at 2µM, 24h preincubation with gametocytes, replicate R1, read-out: % inhibition male (individual replicates) R1): 68.8%
inhibition at 2 µM ([1]; Plasmodium falciparum, PfDGFA at 2µM, 24h preincubation with gametocytes, replicate R2, read-out: % inhibition male (individual replicates) R2): 80.9%
inhibition at 2 µM ([1]; Plasmodium falciparum, PfDGFA at 2µM, 24h preincubation with gametocytes, replicate R4, read-out: % inhibition male (individual replicates) R4): 85.2%
HitlevelM [1, 7]: 3
Selectivity ratio F [2]: 10.00
inhibition at 2 µM ([2]; Plasmodium falciparum, PfDGFA at 2µM, 24h preincubation with gametocytes, average of replicates, read-out: Average inhibition female (%)): 5%
inhibition at 2 µM ([2]; Plasmodium falciparum, PfDGFA at 2µM, 24h preincubation with gametocytes, replicate R1, read-out: % inhibition female (individual replicates) R1): 1.1%
inhibition at 2 µM ([2]; Plasmodium falciparum, PfDGFA at 2µM, 24h preincubation with gametocytes, replicate R2, read-out: % inhibition female (individual replicates) R2): -7.6%
inhibition at 2 µM ([2]; Plasmodium falciparum, PfDGFA at 2µM, 24h preincubation with gametocytes, replicate R3, read-out: % inhibition female (individual replicates) R3): 23.9%
inhibition at 2 µM ([2]; Plasmodium falciparum, PfDGFA at 2µM, 24h preincubation with gametocytes, replicate R4, read-out: % inhibition female (individual replicates) R4): 2.5%
HitlevelF [2, 8]: 0

Compound: COc1ccc(N2C(N)=NC(N)=NC2(C)C)cc1.Cl [TCMDC-124269]
% inhibition male (individual replicates) R1 [1, 3]: 22.5%
% inhibition male (individual replicates) R3 [1, 4]: 4.0%
% inhibition male (individual replicates) R4 [1, 5]: -9.1%
Average inhibition male (%) [1, 6]: 11.6%
% inhibition female (individual replicates) R1 [2, 3]: 13.5%
% inhibition female (individual replicates) R3 [2, 4]: -15.3%
% inhibition female (individual replicates) R4 [2, 5]: 10.3%
Average inhibition female (%) [2, 6]: 1.7%

IC50 [1]: 640 nM
IC50 [2]: 530 nM
Compound: CC(=NNC(=S)NCCc1ccccc1)c1ccccn1 [TCMDC-124270]
Average inhibition male (%) [1, 9]: 63.1%
% inhibition male (individual replicates) R1 [1, 10]: 70.1%
% inhibition male (individual replicates) R3 [1, 11]: 69.5%
% inhibition male (individual replicates) R4 [1, 12]: 18.9%
HitlevelM [1, 7]: 3
Average inhibition female (%) [2, 9]: 36.2%
% inhibition female (individual replicates) R1 [2, 10]: 25.2%
% inhibition female (individual replicates) R3 [2, 11]: 20.9%
% inhibition female (individual replicates) R4 [2, 12]: 55.8%
HitlevelF [2, 8]: 1

Compound: CC(C)(c1ccccc1)c1ccc(O)c(CN2CCOCC2)c1 [TCMDC-124276]
% inhibition male (individual replicates) R1 [1, 3]: 1.1%
% inhibition male (individual replicates) R4 [1, 5]: -1.8%
Average inhibition male (%) [1, 6]: 10.2%
% inhibition female (individual replicates) R1 [2, 3]: 0.5%
% inhibition female (individual replicates) R3 [2, 4]: 8.1%
% inhibition female (individual replicates) R4 [2, 5]: -2.3%
Average inhibition female (%) [2, 6]: -2.0%

IC50 [1]: 110 nM
IC50 [2]: 300 nM
Compound: CC(=NNC(=S)Nc1ccccc1Cl)c1ccccn1 [TCMDC-124278]
Average inhibition male (%) [1, 13]: 101.3%
% inhibition male (individual replicates) R1 [1, 14]: 101.8%
% inhibition male (individual replicates) R3 [1, 15]: 99.8%
% inhibition male (individual replicates) R4 [1, 16]: 103.6%
Average inhibition female (%) [2, 13]: 61.5%
% inhibition female (individual replicates) R1 [2, 14]: 40.0%
% inhibition female (individual replicates) R3 [2, 15]: 55.6%
% inhibition female (individual replicates) R4 [2, 16]: 74.7%

Compound: CCCCOc1ccc(N2C(N)=NC(N)=NC2(C)C)cc1.Cl [TCMDC-124279]
% inhibition male (individual replicates) R1 [1, 3]: -7.3%
% inhibition male (individual replicates) R3 [1, 4]: -37.1%
% inhibition male (individual replicates) R4 [1, 5]: -28.5%
Average inhibition male (%) [1, 6]: -17.0%
% inhibition female (individual replicates) R1 [2, 3]: 2.1%
% inhibition female (individual replicates) R3 [2, 4]: -37.2%
% inhibition female (individual replicates) R4 [2, 5]: 21.1%
Average inhibition female (%) [2, 6]: -3.8%

Compound: CCOC(=O)c1cc(C(=O)OC)c2ccccn12 [TCMDC-124299]
% inhibition male (individual replicates) R1 [1, 3]: 15.7%
% inhibition male (individual replicates) R3 [1, 4]: -23.4%
% inhibition male (individual replicates) R4 [1, 5]: -23.1%
Average inhibition male (%) [1, 6]: -9.0%
% inhibition female (individual replicates) R1 [2, 3]: 6.3%
% inhibition female (individual replicates) R3 [2, 4]: -21.8%
% inhibition female (individual replicates) R4 [2, 5]: 0.07%
Average inhibition female (%) [2, 6]: -2.7%

Compound: [O-][S+]1c2ccccc2Sc2ccccc21 [TCMDC-124300]
% inhibition male (individual replicates) R1 [1, 3]: 13.3%
% inhibition male (individual replicates) R3 [1, 4]: 4.0%
% inhibition male (individual replicates) R4 [1, 5]: -37.1%
Average inhibition male (%) [1, 6]: -9.5%
% inhibition female (individual replicates) R1 [2, 3]: 9.4%
% inhibition female (individual replicates) R3 [2, 4]: -8.0%
% inhibition female (individual replicates) R4 [2, 5]: -1.0%
Average inhibition female (%) [2, 6]: -3.0%

IC50 ([1]; Plasmodium falciparum): 370 nM
IC50 ([2]; Plasmodium falciparum): 7560 nM
Compound: CCCCNS(=O)(=O)c1ccc(NC(=O)c2cc([N+](=O)[O-])ccc2Cl)cc1 [TCMDC-124345]
Selectivity Ratio M [1]: 267.48
inhibition at 2 µM ([1]; Plasmodium falciparum, 2µM, 24h preincubation with gametocytes, average of replicates, read-out: Average inhibition male (%)): 100%
inhibition at 2 µM ([1]; Plasmodium falciparum, 2µM, 24h preincubation with gametocytes, replicate R1, read-out: % inhibition male (individual replicates) R1): 101%
inhibition at 2 µM ([1]; Plasmodium falciparum, 2µM, 24h preincubation with gametocytes, replicate R2, read-out: % inhibition male (individual replicates) R2): 102%
inhibition at 2 µM ([1]; Plasmodium falciparum, 2µM, 24h preincubation with gametocytes, replicate R3, read-out: % inhibition male (individual replicates) R3): 100%
inhibition at 2 µM ([1]; Plasmodium falciparum, 2µM, 24h preincubation with gametocytes, replicate R4, read-out: % inhibition male (individual replicates) R4): 98.2%
Selectivity ratio F [2]: 13.22
inhibition at 2 µM ([2]; Plasmodium falciparum, 2µM, 24h preincubation with gametocytes, average of replicates, read-out: Average inhibition female (%)): 20%
inhibition at 2 µM ([2]; Plasmodium falciparum, 2µM, 24h preincubation with gametocytes, replicate R1, read-out: % inhibition female (individual replicates) R1): 27.9%
inhibition at 2 µM ([2]; Plasmodium falciparum, 2µM, 24h preincubation with gametocytes, replicate R2, read-out: % inhibition female (individual replicates) R2): 30.3%
inhibition at 2 µM ([2]; Plasmodium falciparum, 2µM, 24h preincubation with gametocytes, replicate R3, read-out: % inhibition female (individual replicates) R3): 6.6%
inhibition at 2 µM ([2]; Plasmodium falciparum, 2µM, 24h preincubation with gametocytes, replicate R4, read-out: % inhibition female (individual replicates) R4): 15%

Compound: CC(=O)Nc1ccc(Nc2c3ccccc3nc3ccccc23)cc1 [TCMDC-124356]
Average inhibition male (%) [1, 17]: 30.9%
% inhibition male (individual replicates) R1 [1, 18]: 50.9%
% inhibition male (individual replicates) R4 [1, 19]: -15.9%
HitlevelM ([1]; 2µM, 24h preincubation, hits selected on >50% inhibition in the male readout across replicates): 2
Activity ([1]; PfDGFA at 2µM, 24h preincubation, hit = >50% inhibition in male or female readout in at least 3 replicates, 0 = no class assigned): 0
Average inhibition female (%) [2, 17]: 14.4%
% inhibition female (individual replicates) R1 [2, 18]: 47.3%
% inhibition female (individual replicates) R3 ([2]; 2µM, 24h preincubation with gametocytes prior to induction of gametogenesis, replicate R3): 8.8%
% inhibition female (individual replicates) R4 [2, 19]: 12.0%
HitlevelF ([2]; 2µM, 24h preincubation, hits selected on >50% inhibition in the female readout across replicates): 0
